The experiment has as its target T1, MAGE-A11:PCF11 interaction (GST-MAGE-A11 and FAM-PCF11_4) (Homo sapiens, UniProt P43364).
T1 construct: GST-MAGE-A11 MHD (human MAGE-A11 MHD amino acid 218-429); made in house; host or cells: E. coli BL21(DE3)
T1 sequence (P43364 218-429): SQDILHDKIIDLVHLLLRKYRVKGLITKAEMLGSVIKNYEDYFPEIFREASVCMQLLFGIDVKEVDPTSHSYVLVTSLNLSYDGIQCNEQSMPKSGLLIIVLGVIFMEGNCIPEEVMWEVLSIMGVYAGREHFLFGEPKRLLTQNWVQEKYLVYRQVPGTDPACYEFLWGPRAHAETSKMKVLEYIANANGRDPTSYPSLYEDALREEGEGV
Briefly: TR-FRET primary / single point screen at 15 µM. The format is binding. The gist of the method: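 TR-FRET 520/490 nm emission ratio was read after 90 min at room temperature. Wells held 5 nM GST-MAGE-A11, 5 nM Tb-anti-GST, 200 nM FAM-PCF11_4 and 15 µM compound in Tris pH 7.5 buffer with MgCl2, BSA and DTT. %Inhibition was scaled to DMSO and minus-MAGE-A11 controls.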
A general note: Time-resolved FRET reads energy transfer from a long-lived donor to a nearby acceptor.

Setting [1] is: single point TR-FRET screening of quinoline compounds against MAGE-A11:PCF11, 15 µM.
Setting [2] is: single point TR-FRET screening of 797 quinoline compounds against MAGE-A11:PCF11.

In the case of `CC(CCNCCCNc1ccnc2cc(Cl)ccc12)c1ccccc1` (stereo not drawn) [SJ000523053], the “percent inhibition (TR-FRET)” value under setting [1] came out at 19.0144. Still for that read-out and setting: in the case of `CCCN(CCCNc1ccnc2cc(C(F)(F)F)ccc12)CC1CC1` [SJ000361266] it was 48.1534; in that of `CCCN(CCCNc1ccnc2cc(Cl)ccc12)Cc1cccc(C#N)c1` [SJ000522763], 12.9099.

As to `COc1ccc(O)c(CN(CCCCNc2ccnc3cc(Cl)ccc23)Cc2ccccc2)c1` [SJ000312696], under setting [2], the “percent inhibition (TR-FRET)” value is on record as 6.634.

On to `CCCN(CCCNc1ccnc2cc(Cl)ccc12)Cc1cccnc1` [SJ000357446], for which, under setting [1], the “percent inhibition (TR-FRET)” value is given as 7.809. Same read-out and setting: in the case of `Clc1ccc2c(NCCCNCc3cncc(Br)c3)ccnc2c1` [SJ000521037] it was 7.014. As for `Clc1ccc2c(NCCCCN(Cc3ccccc3)Cc3cccs3)ccnc2c1` [SJ000312686], under setting [2], the “percent inhibition (TR-FRET)” value turned out to be 25.0481.

In the case of `O=[N+]([O-])c1ccc(CN(CCCNc2ccnc3cc(Cl)ccc23)Cc2ccccc2)cc1` [SJ000361179], the “percent inhibition (TR-FRET)” value under setting [1] was determined as 20.1971. As for `Cc1cccc(CN(CCCCNc2ccnc3cc(Cl)ccc23)Cc2ccccc2)c1` [SJ000361206], the “percent inhibition (TR-FRET)” value under setting [2] amounted to 29.5379.

`Cc1ccc2ncc(S(=O)(=O)c3ccccc3)c(N3CCN(c4ccccc4)CC3)c2c1` [SJ000083973]: the “percent inhibition (TR-FRET)” value under setting [2] is recorded as -29.7042. As to `CN(C)c1cccc(Oc2ccc3c(NCCCNCc4ccco4)ccnc3c2)c1` [SJ000311230], the “percent inhibition (TR-FRET)” value under setting [1] was found to be 63.4168. On the same count and under the same terms, in the case of `CCCN(CCCNc1ccnc2cc(Cl)ccc12)Cc1ccccc1F` [SJ000522757] it was 21.9858. With `CCOc1ccc2ncc(S(=O)(=O)c3ccc(OC)cc3)c(N3CCN(CC)CC3)c2c1` [SJ000083971], the “percent inhibition (TR-FRET)” value under setting [2] is -6.389. Take `CCCN(CCCNc1ccnc2cc(Cl)ccc12)Cc1cc2ccccc2o1` [SJ000522991]: the “percent inhibition (TR-FRET)” value under setting [1] is given as 9.295. `CCOC(=O)c1cnc2c(C)cc(C)cc2c1NCCCN(C)C` [SJ000037397]: the “percent inhibition (TR-FRET)” value under setting [1] is 14.9289. With `CCOC(=O)c1cnc2c(C)c(Cl)ccc2c1NCCN(C)C` [SJ000037393], the “percent inhibition (TR-FRET)” value under setting [2] was -1.333. Regarding `CCOC(=O)c1cnc2c(Cl)c(Cl)ccc2c1NCCN(C)C` [SJ000027266], under setting [2], the “percent inhibition (TR-FRET)” value is 2.575. Turning to `CCCCNCCCNc1c2ccc(Cl)cc2nc2ccc(OC)cc12` [SJ000520995], the “percent inhibition (TR-FRET)” value under setting [2] was -405.549. As to `CCCN(CCCNc1ccnc2cc(Cl)ccc12)Cc1scnc1C` [SJ000523005], the “percent inhibition (TR-FRET)” value under setting [1] is 11.85. Regarding `CCCN(CCCNc1c2ccc(Cl)cc2nc2ccc(OC)cc12)Cc1ccc(N(C)C)cc1` [SJ000520955], under setting [1], the “percent inhibition (TR-FRET)” value is on record as -10.0604. As to `CCCN(CCCCCC(=O)OC)CCCNc1ccnc2cc(Cl)ccc12` [SJ000523017], the “percent inhibition (TR-FRET)” value under setting [1] is on record as 14.3011. As to `Clc1ccc2c(NCCCCN(Cc3ccccc3)Cc3cccnc3Br)ccnc2c1` [SJ000520453], under setting [2], the “percent inhibition (TR-FRET)” value is on record as 2.377. Still for that read-out and setting: in the case of `COc1cccc(CN2CCC(Nc3ccnc4cc(Cl)ccc34)CC2)c1O` [SJ000357525] it was 9.995.

`CCCN(CCCNc1c2ccc(Cl)cc2nc2ccc(OC)cc12)Cc1c(F)cccc1OC` [SJ000522733]: under setting [2], the “percent inhibition (TR-FRET)” value is reported as -187.09. For the molecule `COc1ccc(C(F)(F)F)cc1CN(CCCNc1ccnc2cc(Cl)ccc12)Cc1ccccc1` [SJ000520450], under setting [1], the “percent inhibition (TR-FRET)” value is recorded as 23.1782. On to `CCCN(CCCNc1c2ccc(Cl)cc2nc2ccc(OC)cc12)Cc1cccc(F)c1` [SJ000520945], for which, under setting [1], the “percent inhibition (TR-FRET)” value is on record as -90.1278. With `COc1ccccc1N1CCN(c2c(S(=O)(=O)c3ccc(C)cc3)cnc3ccccc23)CC1` [SJ000117065], the “percent inhibition (TR-FRET)” value under setting [2] is given as -8.687.

Consider `CCCN(CCCNc1c2ccc(Cl)cc2nc2ccc(OC)cc12)Cc1ccc(OC)c(OC)c1` [SJ000520957], for which, under setting [2], the “percent inhibition (TR-FRET)” value is on record as -175.453. With `CCN(CC)CC(=O)Nc1c2c(nc3ccccc13)CCC2` [SJ000049655], under setting [2], the “percent inhibition (TR-FRET)” value came out at 0.6542.

As for `CCCN(CCCCCC(=O)OC)CCCNc1ccnc2cc(C(F)(F)F)ccc12` [SJ000575191], the “percent inhibition (TR-FRET)” value under setting [1] amounted to 5.6. In the case of `COc1ccc2nc3cc(Cl)ccc3c(NCCCNCc3ccc(-c4cccc(Cl)c4)o3)c2c1` [SJ000522959], under setting [1], the “percent inhibition (TR-FRET)” value is given as -47.4182.

`Cc1ccc2ncc(S(=O)(=O)c3ccccc3)c(N3CCN(Cc4ccccc4)CC3)c2c1` [SJ000247256]: under setting [2], the “percent inhibition (TR-FRET)” value was determined as 2.673.

As for `CCCN(CCCNc1c2ccc(Cl)cc2nc2ccc(OC)cc12)Cc1cncc(Br)c1` [SJ000522975], under setting [1], the “percent inhibition (TR-FRET)” value is on record as -89.0775.

As for `Clc1ccc2c(NCCCN(CCCc3ccccc3)Cc3ccccc3)ccnc2c1` [SJ000361185], the “percent inhibition (TR-FRET)” value under setting [1] is reported as 6.074. Take `COc1ccc2nc3cc(Cl)ccc3c(NCCCNCc3cccc(OC(F)(F)F)c3)c2c1` [SJ000520988]: the “percent inhibition (TR-FRET)” value under setting [1] is recorded as -73.5426. On to `CCCN(CCCNc1c2ccc(Cl)cc2nc2ccc(OC)cc12)Cc1ccc(-c2ccccc2[N+](=O)[O-])o1` [SJ000523019], for which the “percent inhibition (TR-FRET)” value under setting [2] is given as -102.758. As for `Clc1ccc2c(NC3CCN(Cc4ccc5ccccc5c4)CC3)ccnc2c1` [SJ000523100], under setting [2], the “percent inhibition (TR-FRET)” value came to 4.171. As for `COC(=O)CCCCCN(CCCNc1ccnc2cc(Cl)ccc12)Cc1ccccc1` [SJ000520429], the “percent inhibition (TR-FRET)” value under setting [1] amounted to 17.1364. Turning to `COc1cccc(F)c1CN(CCCNc1ccnc2cc(Cl)ccc12)Cc1ccccc1` [SJ000357500], the “percent inhibition (TR-FRET)” value under setting [1] was -2.857.

Regarding `CC(C)CN(CCCNc1ccnc2cc(Cl)ccc12)Cc1ccccc1` [SJ000357468], under setting [1], the “percent inhibition (TR-FRET)” value is recorded as 18.7467. With `CCCN(CCCCNc1ccnc2cc(Cl)ccc12)Cc1ccoc1` [SJ000311200], the “percent inhibition (TR-FRET)” value under setting [2] was determined as 12.3053. Regarding `Cn1cc(CNCCCNc2ccnc3cc(Cl)ccc23)c2ccccc21` [SJ000521020], the “percent inhibition (TR-FRET)” value under setting [1] was determined as 18.4667. For the molecule `CCCN(CCCNc1ccnc2cc(Cl)ccc12)CCOCc1ccccc1` [SJ000357577], the “percent inhibition (TR-FRET)” value under setting [1] was -13.1805. In the case of `Cc1cc(N2CCN(CC(O)COCC(C)C)CC2)c2ccccc2n1` (stereo not drawn) [SJ000227654], the “percent inhibition (TR-FRET)” value under setting [2] is given as -3.251.

For the molecule `CCCN(CCCNc1ccnc2cc(C(F)(F)F)ccc12)Cc1cccc(F)c1` [SJ000521008], the “percent inhibition (TR-FRET)” value under setting [1] turned out to be 27.8488. For `CCCN(CCCNc1ccnc2cc(C(F)(F)F)ccc12)Cc1ccccc1OC(F)(F)F` [SJ000520470], the “percent inhibition (TR-FRET)” value under setting [1] was 5.934.

Take `CCCN(CCCNc1c2ccc(Cl)cc2nc2ccc(OC)cc12)CC(C)C` [SJ000575150]: the “percent inhibition (TR-FRET)” value under setting [1] is -21.3723.

For `Cn1ccnc1CNCCCNc1ccnc2cc(Cl)ccc12` [SJ000521040], under setting [1], the “percent inhibition (TR-FRET)” value amounted to 1.449. In the case of `Clc1ccc2c(NCCCCN(CCCc3ccccc3)Cc3ccccc3)ccnc2c1` [SJ000522729], the “percent inhibition (TR-FRET)” value under setting [2] is 27.8155. For `Clc1ccc2c(NC3CCN(Cc4ccc5c(c4)OCO5)CC3)ccnc2c1` [SJ000523087], the “percent inhibition (TR-FRET)” value under setting [2] is 7.6432.

As for `Cc1ccsc1CN(CCCCNc1ccnc2cc(Cl)ccc12)Cc1ccccc1` [SJ000361191], the “percent inhibition (TR-FRET)” value under setting [2] worked out at 23.4378.

As for `CCOC(=O)c1cnc2c(CC)cccc2c1NCCN1CCOCC1` [SJ000279714], the “percent inhibition (TR-FRET)” value under setting [2] was -6.103. As to `Cn1cc(CNCCCNc2ccnc3cc(C(F)(F)F)ccc23)c2ccccc21` [SJ000521043], the “percent inhibition (TR-FRET)” value under setting [1] is recorded as 29.109. Take `CCCN(CCCNc1c2ccc(Cl)cc2nc2ccc(OC)cc12)Cc1csc2ccccc12` [SJ000522970]: under setting [1], the “percent inhibition (TR-FRET)” value is on record as -51.6891. `COc1ccc2nc3cc(Cl)ccc3c(NCCCNCc3cccc(F)c3)c2c1` [SJ000521004]: under setting [2], the “percent inhibition (TR-FRET)” value was -366.222. As for `CCCN(CCCNc1c2ccc(Cl)cc2nc2ccc(OC)cc12)Cc1cc(F)ccc1OC` [SJ000520931], under setting [1], the “percent inhibition (TR-FRET)” value amounted to 1.847. Turning to `c1coc(CNCCCNc2ccnc3cc(CC4CCCCC4)ccc23)c1` [SJ000311250], the “percent inhibition (TR-FRET)” value under setting [1] was found to be 40.6616. As for `CCC(C)CN(CCCNc1ccnc2cc(Cl)ccc12)Cc1ccccc1` (stereo not drawn) [SJ000361186], under setting [1], the “percent inhibition (TR-FRET)” value worked out at 29.5992.

In the case of `CCOC(=O)c1cnc2ccc(Br)cc2c1NCCCN1CCOCC1` [SJ000176507], the “percent inhibition (TR-FRET)” value under setting [1] is -22.0025.

For the molecule `O=S(=O)(c1ccc(F)cc1)N1CCN(c2ccnc3cc(Cl)ccc23)CC1` [SJ000203833], the “percent inhibition (TR-FRET)” value under setting [2] is on record as -50.6426. Same read-out and setting: in the case of `CCN(CC)CC(=O)Nc1c2c(nc3ccccc13)CCCC2` [SJ000019523] it was 2.741. Turning to `CCN(CC)CCCC(C)Nc1ccnc2cc(Cl)ccc12` (stereo not drawn) [SJ000285185], the “percent inhibition (TR-FRET)” value under setting [2] is on record as -2.592.

Take `CC(C)(C)CCNCCCNc1ccnc2cc(Cl)ccc12` [SJ000521026]: the “percent inhibition (TR-FRET)” value under setting [1] was found to be 9.225. As to `CCOc1ccc2ncc(S(=O)(=O)c3ccc(C)c(C)c3)c(N3CCN(CC)CC3)c2c1` [SJ000247355], the “percent inhibition (TR-FRET)” value under setting [2] was -13.3902.

For `CCc1ccc(S(=O)(=O)c2cnc3ccccc3c2N2CCN(Cc3ccccc3)CC2)cc1` [SJ000117086], under setting [2], the “percent inhibition (TR-FRET)” value was -55.2584. On to `COc1ccc2nc3cc(Cl)ccc3c(NCCCNCc3ccc(Cl)c([N+](=O)[O-])c3)c2c1` [SJ000523036], for which, under setting [1], the “percent inhibition (TR-FRET)” value is recorded as -95.379.

(Values after article PMC7529893, “Structural basis for substrate recognition and chemical inhibition of oncogenic MAGE ubiquitin ligases” (Nature Communications, 2020).)
